Laboratory results taken from PMC3731216, “Origin and Functional Diversification of an Amphibian Defense Peptide Arsenal” (PLoS Genetics, 2013).
Values after ≈ are worked out from the molar mass of the structure shown. Where a SMILES comes first, the peptide text is derived from it.

How the values were obtained:
[1] = test system: Escherichia coli (ATCC 25922); experiment: MIC assay in liquid medium (twofold dilutions) against E. coli; format: cell-based; settings: lowest concentration in twofold dilutions with no growth; 5×10^5 CFU/ml, Müller-Hinton broth, 37°C, 18 hours, read by eye; duplicate or triplicate, min–max if variable
Protocol: (§1) Seventeen predicted and recovered peptides were de novo synthesized using solid-phase technology by CASLO Laboratory ApS (Lyngby, Denmark) and delivered as HPLC-purified (>95%) trifluoracetate (TFA) salts. The peptide salts were stored as 5.12 mM stock solutions in 0.01% (V/V) acetic acid/0.2% (m/V) BSA. Peptides were tested against Escherichia coli (ATCC 25922) and Pseudomonas aeruginosa (ATCC 15692), Staphylococcus aureus (ATCC 25923), Micrococcus luteus, Saccharomyces cerevisiae, a protozoan parasite (Trypanosoma brucei brucei), mouse (Mus musculus) red blood cells and mouse spleen tissue cultures (containing 50–60% B-cells, ∼25–30% T-cells, and 5% myeloid cells). All assays were performed in duplicate or triplicate.
(§2) Activity against the bacteria and fungus was measured by assessing the lowest peptide concentration in a series of twofold dilutions at which no growth was detected (known as the minimum inhibitory concentration, MIC). Bacterial and yeast cultures (5×10^5 colony forming units/ml) were prepared in Müller-Hinton (MH) broth and Luria-Bertani (LB) broth respectively and transferred to serial dilutions of peptides ranging from 512 or 256 µM down to 1 or 0.5 µM in 96-well polypropylene plates. After incubation at 37°C (bacteria) or 30°C (S. cerevisiae) for 18 hours, growth of the cultures was checked by eye. In addition to MIC, we determined minimum microbicidal concentrations (MMC) by inoculating samples of the MIC assays on agar plates lacking peptides and checking for overnight growth. In all cases, MIC and MMC were identical.

[2] = Hydrophobicity as % TFA/AcN solvent at HPLC elution time; format: physicochemical; settings: chromatographic; expressed as % TFA/AcN solvent at HPLC elution time
[3] = test system: T-lymphocytes (naive C57Black/6 splenocytes); experiment: Inhibition of Concanavalin A-induced T-cell proliferation in spleen cell cultures; format: cell-based, Mus musculus; settings: lowest concentration causing at least 50% inhibition of Concanavalin A-induced T-cell proliferation; 2×10^5 splenocytes, 24 h + 18 h [3H]thymidine, 37°C; min–max if variable
Protocol: as §1
Activity against T-lymphocytes was assessed as the lowest peptide concentration in a series of twofold dilutions causing at least 50% inhibition of Concanavalin A-induced T-cell proliferation (IC50). Solutions containin 2×10^5 naive C57Black/6 splenocytes in the presence of 2.5 µg Concanavalin A were added to polypropylene 96-well plates containing the serial peptide dilutions to obtain total volumes of 100 µl. After incubation for 24 hours at 37°C in a humidified atmosphere, the cells were pulsed with [^3H]thymidine and incubated for an additional 18 hours. The amount of [^3H]thymidine incorporation was assessed by a β-counter as a measure of cell proliferation and the percentage of proliferation inhibition for each peptide concentration was calculated as 100×(1−(Tobs/T100%)), where Tobs is the [^3H]thymidine level measured for the peptide concentration, and T100% is the [^3H]thymidine level measured for Concanavalin-A-induced cell proliferation in the absence of peptide (representing 100% proliferation).

mouse red blood cells = experiment: Hemolysis of mouse red blood cells (HC50); format: cell-based; settings: lowest concentration causing at least 50% hemolysis; mouse blood diluted 1/100 in RPMI, 37°C, 30 minutes, OD 550 nm; 100% = 1% Tween-20
Protocol: as §1
Activity against mouse red blood cells was examined by assessing the lowest peptide concentration in a series of twofold dilutions causing at least 50% hemolysis (HC50). Briefly, heparinized blood was obtained by cardiac puncture of mice euthanized via CO2. The blood was diluted 1/100 in RPMI and added to polypropylene 96-well plates containing the serial peptide dilutions to obtain total volumes of 100 µl. The plates were incubated at 37°C in a humidified atmosphere for 30 minutes and centrifuged at 1400 rpm for 2 minutes to pellet intact red blood cells allowing visual observation of hemolysis. Supernatants were subsequently transferred to 96-well flat-bottom plates to allow spectrophotometry using an ELISA reader (OD measured at 550 nm). The percentage of hemolyis for each peptide concentration was calculated as 100×(ODobs−OD0%)/(OD100%−OD0%), where ODobs is the OD measured for the peptide concentration, OD0% is the average OD in the absence of peptides (0% hemolysis), and OD100% is the average OD in the presence of 1% Tween-20 (100% hemolysis).

[4] = test system: Trypanosoma brucei brucei AnTat1.1 bloodstream parasites; experiment: Trypanolytic activity (LC95, 30 minutes); format: cell-based; settings: lowest concentration killing at least 95% of parasites after 30 minutes; PSG buffer with 5% FCS, light microscope count; min–max of repeated tests
Protocol: as §1
Activity against T. brucei parasites was assessed as the minimum concentration in a series of twofold dilutions required to kill 95% of parasites in 30 minutes (LC95). Frozen stabilates of Trypanosoma brucei brucei AnTat1.1 bloodstream parasites were expanded by infection of C57Black/6 mice (Janvier). Mice with systemic parasitaemia (typically 4–5 days post infection) were exsanguinated and parasites were purified from heparinized blood by DEAE-cellulose (DE52, Whatman) chromatography. Collected parasites were washed twice with Phosphate-Saline-Glucose buffer (PSG-buffer) and enumerated microscopically using a Bürker hematocytometer. The DEAE52-purified parasites (stock: 10^6 parasites/ml PSG buffer containing 5% FCS) were added to polypropylene 96-well plates containing the serial peptide dilutions to obtain total volumes of 200 µl. After incubation for 30 minutes, trypanolytic activity was assessed using a light microscope by calculating the percentage of dead parasites in a minimum of 200 counted cells.

[5] = test system: Staphylococcus aureus (ATCC 25923); experiment: MIC assay in liquid medium (twofold dilutions) against S. aureus; format: cell-based; settings: lowest concentration in twofold dilutions with no growth; 5×10^5 CFU/ml, Müller-Hinton broth, 37°C, 18 hours, read by eye; duplicate or triplicate, min–max if variable
Protocol: as §1, §2

Micrococcus luteus = experiment: MIC assay in liquid medium (twofold dilutions) against M. luteus; format: cell-based; settings: lowest concentration in twofold dilutions with no growth; 5×10^5 CFU/ml, Müller-Hinton broth, 37°C, 18 hours, read by eye; duplicate or triplicate, min–max if variable
Protocol: as §1, §2

Saccharomyces cerevisiae = experiment: MIC assay in liquid medium (twofold dilutions) against S. cerevisiae; format: cell-based; settings: lowest concentration in twofold dilutions with no growth; 5×10^5 CFU/ml, Luria-Bertani broth, 30°C, 18 hours, read by eye; duplicate or triplicate, min–max if variable
Protocol: as §1, §2

[6] = test system: Pseudomonas aeruginosa (ATCC 15692); experiment: MIC assay in liquid medium (twofold dilutions) against P. aeruginosa; format: cell-based; settings: lowest concentration in twofold dilutions with no growth; 5×10^5 CFU/ml, Müller-Hinton broth, 37°C, 18 hours, read by eye; duplicate or triplicate, min–max if variable
Protocol: as §1, §2

Compound	MIC E. coli [1]	Hydrophobicity [2]	IC50 [3]	HC50 Erythrocytes (mouse red blood cells)	LC95 T. brucei [4]	MIC S. aureus [5]	MIC M. luteus (Micrococcus luteus)	MIC S. cerevisiae (Saccharomyces cerevisiae)	MIC P. aeruginosa [6]
CC(C)C[C@H](NC(=O)[C@H](CC(C)C)NC(=O)[C@H](CC(N)=O)NC(=O)[C@H](CO)NC(=O)CNC(=O)[C@@H](NC(=O)[C@H](CCCCN)NC(=O)[C@H](CC(C)C)NC(=O)CNC(=O)[C@@H](NC(=O)[C@H](CCCCN)NC(=O)[C@H](CC(C)C)NC(=O)[C@H](CC(C)C)NC(=O)[C@H](CO)NC(=O)CNC(=O)[C@H](CC(C)C)NC(=O)[C@H](CC(C)C)NC(=O)[C@@H](N)CC(N)=O)[C@@H](C)O)C(C)C)C(N)=O [CPF-St7] (H-NLLGSLLKTGLKVGSNLL-NH2; N-terminus assumed)	128 µM (≈ 235 µg/mL)	45,2 % TFA/AcN solvent	128 µM	256 µM	2 to 64 µM	32 µM (≈ 58.9 µg/mL)	2 µM (≈ 3.68 µg/mL)	64 µM (≈ 118 µg/mL)	>256 µM
CC[C@H](C)[C@H](NC(=O)[C@H](C)NC(=O)[C@H](CCCCN)NC(=O)[C@H](C)NC(=O)[C@H](C)NC(=O)[C@H](CCCCN)NC(=O)CNC(=O)[C@H](Cc1ccccc1)NC(=O)[C@H](C)NC(=O)[C@@H](NC(=O)CNC(=O)[C@H](C)NC(=O)[C@H](CCCCN)NC(=O)[C@@H](NC(=O)[C@H](C)NC(=O)[C@H](CCSC)NC(=O)CN)[C@@H](C)O)[C@@H](C)O)C(=O)N[C@H](C(=O)NCC(=O)N[C@@H](C)C(=O)N[C@@H](C)C(=O)N[C@@H](CC(C)C)C(N)=O)[C@@H](C)CC [PGLa-St2] (H-GMATKAGTAFGKAAKAIIGAAL-NH2; N-terminus assumed)	16 µM (≈ 32.3 µg/mL)	42,6 % TFA/AcN solvent	64 µM	>256 µM	16 to 32 µM	>256 µM	2 µM (≈ 4.04 µg/mL)	64 µM (≈ 129 µg/mL)	128 µM (≈ 258 µg/mL)
CC(C)C[C@H](NC(=O)CNC(=O)[C@H](C)NC(=O)[C@@H](NC(=O)[C@H](CC(N)=O)NC(=O)[C@H](CO)NC(=O)[C@H](CC(C)C)NC(=O)[C@H](CC(C)C)NC(=O)CN)C(C)C)C(=O)N[C@@H](CC(C)C)C(=O)N[C@@H](CCCCN)C(=O)N[C@@H](CCC(N)=O)C(=O)N[C@@H](Cc1ccccc1)C(=O)N[C@@H](C)C(=O)N[C@@H](CCCCN)C(=O)NCC(=O)NCC(=O)N[C@H](C(=O)N[C@@H](CC(N)=O)C(=O)N[C@@H](C)C(=O)N[C@H](C(=O)N[C@@H](CC(C)C)C(=O)N[C@@H](CC(N)=O)C(=O)N1CCC[C@H]1C(=O)N[C@@H](CCCCN)C(=O)O)C(C)C)C(C)C [XPF-St7] (H-GLLSNVAGLLKQFAKGGVNAVLNPK-OH)	8 µM (≈ 20.1 µg/mL)		16 µM	>256 µM		128 µM (≈ 321 µg/mL)	1 µM (≈ 2.51 µg/mL)	32 µM (≈ 80.3 µg/mL)	32 µM (≈ 80.3 µg/mL)
CC[C@H](C)[C@H](NC(=O)[C@H](C)NC(=O)[C@H](CC(N)=O)NC(=O)[C@@H](NC(=O)CNC(=O)CNC(=O)[C@H](CCCCN)NC(=O)[C@H](C)NC(=O)[C@H](Cc1ccccc1)NC(=O)[C@H](CCCCN)NC(=O)[C@H](CCCCN)NC(=O)[C@H](C)NC(=O)[C@H](Cc1ccccc1)NC(=O)[C@H](CC(N)=O)NC(=O)[C@H](C)NC(=O)[C@@H](NC(=O)[C@H](CCCCN)NC(=O)[C@H](CO)NC(=O)[C@H](CCSC)NC(=O)[C@H](Cc1ccccc1)NC(=O)CN)C(C)C)C(C)C)C(=O)N[C@@H](CCSC)C(=O)N[C@@H](CC(N)=O)C(=O)N[C@@H](CCC(N)=O)C(=O)N[C@@H](CCCCN)C(=O)O [XPF-St8] (H-GFMSKVANFAKKFAKGGVNAIMNQK-OH)	1 µM (≈ 2.69 µg/mL)		16 µM	64 µM		128 µM (≈ 344 µg/mL)	0,5 µM	8 µM (≈ 21.5 µg/mL)	4 µM (≈ 10.7 µg/mL)
CC[C@H](C)[C@H](NC(=O)[C@H](Cc1ccccc1)NC(=O)CNC(=O)[C@H](CCCCN)NC(=O)[C@H](C)NC(=O)[C@H](Cc1ccccc1)NC(=O)[C@H](CCCCN)NC(=O)[C@H](CCCCN)NC(=O)[C@H](C)NC(=O)[C@H](CO)NC(=O)[C@H](Cc1c[nH]cn1)NC(=O)[C@H](C)NC(=O)[C@@H](NC(=O)[C@H](CCC(=O)O)NC(=O)[C@H](CCCCN)NC(=O)[C@H](CC(C)C)NC(=O)CN)C(C)C)C(=O)N[C@@H](CO)C(=O)NCC(=O)N[C@@H](CC(C)C)C(=O)N[C@H](C(=O)NCC(=O)N[C@@H](CO)C(=O)O)[C@@H](C)O [magainin-St1] (H-GLKEVAHSAKKFAKGFISGLTGS-OH)	64 µM (≈ 149 µg/mL)		> 256 µM	>256 µM		>256 µM	32 µM (≈ 74.7 µg/mL)	128 µM (≈ 299 µg/mL)	>256 µM
FIGALLGPLLNLLKa [PFQa-St1, homologue of pFQa encoded by xpf-St7]		55,4 % TFA/AcN solvent							
GMATKAGTVLGKVTKAIIGAALa [PGLa-St3, predicted S. tropicalis skin peptide encoded by pgla-St3]		39,2 % TFA/AcN solvent							
KLGFENFLVKALKTVMHVPTSPLLa [CPF-St6, predicted S. tropicalis skin peptide encoded by cpf-St6]	16 µM	35,5 % TFA/AcN solvent	32 to 64 µM	256 µM	16 to 256 µM	>256 µM	4 µM	64 µM	>256 µM
pQGLIGTLTAKQIKKa [levitide-St2, levitide-related peptide encoded by xpf-St5]		35,0 % TFA/AcN solvent							
pQGLMGTLISKQMKKa [levitide-St1, levitide-related peptide encoded by xpf-St4]		31,6 % TFA/AcN solvent							
